The experiment can be described thus: In vitro inhibition of Acetylcholinesterase Activity in octopus brain.

For the compound `CCCCCSC(=O)OCC[N+](C)(C)C` [Trimethyl-(2-pentylsulfanylcarbonyloxy-ethyl)-ammonium; chloride], the Ki (usually the dissociation constant of the complex between target and ligand, obtained from inhibition or displacement) was 2 µM.

Source of the values: BindingDB's records for doi:10.1021/jm970141k (University of North Texas, 1997).
